In US20260306526A1, “COMBINATION THERAPY FOR BACTERIAL INFECTIONS COMPRISING ZINC-CHELATOR, BETA-LACTAM ANTIBIOTIC AND SERINE BETA-LACTAMASE INHIBITOR” (priority 2023, published 2026):
Values joined by “and” are separate entries in the source; they are usually repeats but may differ in a detail not shown here. Identical values can stand only once.

Tested on: Klebsiella pneumoniae K66-45
Assay: MIC determination, fixed ratio of sBLI to antibiotic (Examples 2-4)
Assay type: cell-based
Conditions: Example 2; with MEM and AVI (fixed ratio); NDM-1; caMHB, 29.4 μM Zn2+
Description: Antimicrobial susceptibility testing (AST) by broth microdilution (MIC determination) was performed according to The European Committee on Antimicrobial Susceptibility Testing (EUCAST) guidelines (see Reading guide for broth microdilution Version 5.0, 2024: https://www.eucast.org).
Sterile clear round bottom polystyrene (non-treated) 96-well microplates (Corning 3788) were used for making serial two-fold dilutions of the antibiotic and the sBLI in cation-adjusted Mueller Hinton II broth (caMHB; Thermo Scientific, T3462, containing 29.4 μM Zn^2+), across the columns of the microtiter plate (256-0.06 μg/mL; columns 1-12). The checkerboard plates were all made by keeping the sBLI at a fixed ratio relative to antibiotic (absolute concentrations of each, in μg/mL) to all wells containing sample in each plate. Additionally, a set of samples was included in each test plate, where the zinc chelator was added, at various fixed concentrations, of 16 μg/mL, 8 μg/mL and/or 4 μg/mL (as specified in each Example). All sample wells contained growth medium (caMHB), and inoculated bacteria at a final inoculum between 3-7×10^5 CFU/mL. […]

CN(C[C@H](O)[C@@H](O)[C@H](O)[C@H](O)CO)C(=O)c1ccc(CN(Cc2ccccn2)Cc2ccccn2)nc1 [zinc chelator] was tested, and the “Synergy with the zinc chelator observed at concentration” value was 16 µg/mL and 8 µg/mL.
